According to PMC12751012, “Nanoscale Direct-to-Biology Optimization and Structural Insights into Selective S. aureus TrmD Inhibitors” (Journal of Medicinal Chemistry, 2025):
Read-outs that look alike come from different tables or passages of the source.

Experiments:
H. influenzae TrmD = molecular target: T1, H. influenzae TrmD (Haemophilus influenzae, UniProt P43912); test: Fluorescence polarization (FP) assay, tracer 3 (Cy5TPD), H. influenzae TrmD; format: binding
T1 construct: host or cells: E. coli BL21
T1 sequence (P43912 whole entry): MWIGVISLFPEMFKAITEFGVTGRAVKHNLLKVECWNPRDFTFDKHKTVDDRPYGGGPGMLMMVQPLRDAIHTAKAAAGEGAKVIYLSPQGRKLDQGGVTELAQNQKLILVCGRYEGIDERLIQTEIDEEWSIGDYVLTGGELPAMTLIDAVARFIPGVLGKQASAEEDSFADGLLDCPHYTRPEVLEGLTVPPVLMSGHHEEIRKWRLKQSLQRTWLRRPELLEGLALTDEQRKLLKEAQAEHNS
Description: Fluorescence polarization (FP) assays were performed as follows. The assays for H. influenzae TrmD have been described previously. All assays were conducted in technical triplicate using black 96-well half area plates. For the FP assays, a tracer (20 nM Cy5TPD for E. coli and H. influenzae TrmD, 10 nM tracer 4 for S. aureus TrmD) was mixed with the respective enzyme (2 μM E. coli TrmD, 2 μM H. influenzae TrmD, 500 nM S. aureus TrmD) in buffer (E. coli and H. influenzae TrmD: 50 mM HEPES, 500 mM NaCl, 5% Glycerol, pH 7.5, S. aureus TrmD: 40 mM Tris HCl, 100 mM NaCl, 10 mM MgCl2, 5% Glycerol, pH 7.5). The compounds were added in varying concentrations for K D-value determination. […] The Z-factor for tracer 4 was determined by measuring 48 replicates of the free tracer (positive controls, PC) and 48 replicates of a mixture of enzyme and tracer (negative controls, NC). The Z-factor is defined in terms of the means (μ) and standard deviations (σ) of the positive and negative controls and calculated as Z = 1–(3*(σnc + σpc)/(μnc–μpc)). […] Polarization values (mP) were determined from polarization-specific parallel and orthogonal fluorescence intensities. K D-values were calculated in GraphPad Prism 8.0.1 using the four-parameter Hill equation: y(% tracer bound) = bottom + ([ligand]-slope) × (top–bottom)/([ligand]-slope + K Dslope).

E. coli TrmD = molecular target: T2, E. coli TrmD (Escherichia coli, UniProt P0A873); test: Fluorescence polarization (FP) assay, tracer 3 (Cy5TPD), E. coli TrmD; format: binding
T2 construct: made in house; host or cells: E. coli (the strain received with the pCA24N plasmid)
T2 sequence (P0A873 whole entry): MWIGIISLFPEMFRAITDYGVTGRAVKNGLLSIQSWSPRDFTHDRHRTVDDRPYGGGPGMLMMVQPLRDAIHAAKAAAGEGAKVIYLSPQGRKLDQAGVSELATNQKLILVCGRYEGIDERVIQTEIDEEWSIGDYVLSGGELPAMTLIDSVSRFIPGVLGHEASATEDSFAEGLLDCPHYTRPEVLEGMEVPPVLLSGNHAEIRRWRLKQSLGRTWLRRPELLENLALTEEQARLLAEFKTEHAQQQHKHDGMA
Description: Fluorescence polarization (FP) assays were performed as follows. The assays for H. influenzae TrmD have been described previously. All assays were conducted in technical triplicate using black 96-well half area plates. For the FP assays, a tracer (20 nM Cy5TPD for E. coli and H. influenzae TrmD, 10 nM tracer 4 for S. aureus TrmD) was mixed with the respective enzyme (2 μM E. coli TrmD, 2 μM H. influenzae TrmD, 500 nM S. aureus TrmD) in buffer (E. coli and H. influenzae TrmD: 50 mM HEPES, 500 mM NaCl, 5% Glycerol, pH 7.5, S. aureus TrmD: 40 mM Tris HCl, 100 mM NaCl, 10 mM MgCl2, 5% Glycerol, pH 7.5). The compounds were added in varying concentrations for K D-value determination. For K D-value determination of tracers, the enzyme concentration was varied, and no inhibitory compounds were added (DMSO < 0.5% for TrmDs). The Z-factor for tracer 4 was determined by measuring 48 replicates of the free tracer (positive controls, PC) and 48 replicates of a mixture of enzyme and tracer (negative controls, NC). The Z-factor is defined in terms of the means (μ) and standard deviations (σ) of the positive and negative controls and calculated as Z = 1–(3*(σnc + σpc)/(μnc–μpc)). Fluorescence polarization was measured using a Spark 10 M plate reader (Tecan) equipped with polarization filters and a monochromator setup (λex = 635 nm, λem = 680 nm). Polarization values (mP) were determined from polarization-specific parallel and orthogonal fluorescence intensities. K D-values were calculated in GraphPad Prism 8.0.1 using the four-parameter Hill equation: y(% tracer bound) = bottom + ([ligand]-slope) × (top–bottom)/([ligand]-slope + K Dslope).

[1] = Cell Titer Glo cell viability assay; format: cell-based, human; conditions: human, HEK293 cells
Description: (§1) Cell viability assays were conducted with HEK293 cells (ATCC) to investigate the compounds’ mammalian cytotoxicity. Cells were cultured according to standard protocols (DMEM, 10% FBS, 1× Penicillin/Streptomycin, 37 °C, 5% CO2). Cell viability was assessed using the Promega CellTiterGlo assay kit. Briefly, 1000 cells were seeded in white half a rea 96-well plates (Greiner) and incubated for 48 h with inhibitors from DMSO stocks (final: 0.1% DMSO) under standard cultivation conditions. Then, the cell titer reagent was added to each well according to the manufacturer’s protocols, and luminescence was measured using a Tecan Spark 10 M plate reader.

HEK293 cells = test: Cell Titer Glo cell viability assay; format: cell-based, human; conditions: 48 h
Description: as §1

S. aureus RN4220 = test: Minimal bactericidal concentration (MBC) determination, CFU/mL; format: cell-based, Staphylococcus aureus; conditions: 24 h static incubation
Description: To determine the minimal bactericidal concentration of the substances, bacterial cultures were prepared as in the bacterial growth inhibition assay but incubated statically at 37 °C. A serial dilution of the initial culture was made and plated on a TSB agar plate to determine the CFU/mL of the original culture. After 24 h, the cultures were diluted again and plated. Bacterial colonies were counted, and the CFU/mL was calculated. The experiment was performed in n = 3 biological replicates. Data evaluation was done using GraphPad Prism. One-way ANOVA with Dunnett’s multiple comparisons test was used for statistical analysis, and all samples were compared to the starting CFU/mL.

S. aureus RN4220 lysate = test: Bacterial lysate carbamate cleavage assay (LC/MS); format: in vitro ADME, Staphylococcus aureus; conditions: 400 μM, 16 h; for cleavage in S. aureus lysate: LC/MS; for degree of carbamate cleavage to 8h: S. aureus lysate
Description: An overnight culture of S. aureus RN4220 was set up in TSB medium (BD Bacto Tryptic Soy Broth). The next day, a 150 mL day culture was started at an initial OD600 of 0.1. The culture was incubated at 200 rpm shaking at 37 °C. The bacteria were harvested after 3 h and 40 min (OD600 = 3.30). A 1 mL aliquot was retained to determine cell number. 150 mL of the culture was centrifuged at 4000 rpm for 10 min at 4 °C. The resulting pellet was resuspended in 10 mL of JB Lysis Buffer (0.1% Triton X-100, 20 mM Tris-HCl, 150 mM KCl, 1 mM MgCl2, 1 mM DTT, and protease inhibitors) and transferred to FastPrep tubes. Cells were mechanically lysed (2 × 30 s, 6.5 m/s) and cooled for 5 min on ice. The samples were centrifuged, and the supernatant was transferred to a new tube. Subsequently, it was centrifuged again at 5000 rpm for 30 min at 4 °C. The pellet was washed three times with 1× PBS, reducing the volume to 1 mL. Protein concentration was determined using the Pierce BCA Protein Assay Kit (Thermo Scientific). The final sample was frozen in liquid nitrogen and stored at −80 °C. 100 μL of this lysate was incubated with 8f–h (final concentration 400 μM, 2% DMSO) for 16 h at 30 °C. Afterward, 100 μL acetonitrile was added, and the samples were passed through a syringe filter. Ten μL of the samples were injected during LC/MS (Agilent 1100 system, LC/MSD trap) using an Agilent Poroshell 120 EC-C18 150 × 2.10 mm 4 μm column; mobile phase (gradient: acetonitrile/H2O, 0.1% formic acid). The LC/MS chromatograms and their corresponding mass spectra (base-peak) were analyzed using MestReNova (12.0.4) for prodrug deprotection products.

[2] = read-out: KD H. influenzae TrmD (FP)

| Compound | Kd (H. influenzae TrmD; [2]) | Kd (E. coli TrmD) | CC50 at 48 h [1] | also measured |
| --- | --- | --- | --- | --- |
| N#Cc1cccc(Cn2cc(-c3c[nH]c4nc[nH]c(=O)c34)nn2)c1 [Compound 8b, 3-((4-(4-Oxo-4,7-dihydro-3H-pyrrolo[2,3-d]pyrimidin-5-yl)-1H-1,2,3-triazol-1-yl)methyl)benzonitrile] | > 30 µM | > 30 µM | > 100 µM | mammalian cytotoxicity HEK293 (HEK293 cells; at 100 μM): Slight cytotoxic effects |
| N[C@@H]1CCC[C@@H]1Cn1cc(-c2c[nH]c3nc[nH]c(=O)c23)nn1 [Compound 8e, 5-(1-(((1R,2R)-2-Aminocyclopentyl)methyl)-1H-1,2,3-triazol-4-yl)-3,7-dihydro-4H-pyrrolo[2,3-d]pyrimidin-4-one] | > 30 µM | > 30 µM | > 100 µM | mammalian cytotoxicity HEK293 (HEK293 cells; at >10 μM): Slight cytotoxic effects |
| O=C(/N=C(\NCCn1cc(-c2c[nH]c3nc[nH]c(=O)c23)nn1)NC(=O)OCc1ccccc1)OCc1ccccc1 [Compound 8f] | – | – | – | concentration from which growth (CFU/mL) is affected (S. aureus RN4220): 12.5 µM; effect on CFU/mL after 24 h (MBC determination) (S. aureus RN4220): bacteria were not killed completely; cleavage in S. aureus lysate (S. aureus RN4220 lysate): readily cleaved; degree of carbamate cleavage to 8h (S. aureus RN4220 lysate): ~30% |
| O=c1[nH]cnc2[nH]cc(-c3cn(Cc4ccc5ncccc5c4)nn3)c12 [Compound 8d, 5-(1-(Quinolin-6-ylmethyl)-1H-1,2,3-triazol-4-yl)-3,7-dihydro-4H-pyrrolo[2,3-d]pyrimidin-4-one] | > 30 µM | > 30 µM | > 100 µM | – |
| NC(N)=NCCn1cc(-c2c[nH]c3nc[nH]c(=O)c23)nn1 [Compound 8h] | – | > 30 µM | – | Kd (H. influenzae TrmD; KD H. influenzae TrmD (FP)): > 30 µM; cell viability / mammalian cytotoxicity HEK293 (HEK293 cells; up to 100 μM): no mammalian cytotoxicity |
| O=c1[nH]cnc2[nH]cc(-c3cn(CC4CCC5C(CC4)C5(F)F)nn3)c12 (stereo not shown) [Compound 8c, 5-(1-((8,8-Difluorobicyclo[5.1.0]octan-4-yl)methyl)-1H-1,2,3-triazol-4-yl)-3,7-dihydro-4H-pyrrolo[2,3-d]pyrimidin-4-one] | > 30 µM | > 30 µM | > 100 µM | mammalian cytotoxicity HEK293 (HEK293 cells; at 100 μM): Slight cytotoxic effects |
| CC(C)(C)OC(=O)/N=C(\NCCn1cc(-c2c[nH]c3nc[nH]c(=O)c23)nn1)NC(=O)OC(C)(C)C [Compound 8g] | – | – | – | effect on CFU/mL after 24 h (MBC determination) (S. aureus RN4220): cell growth is not negatively affected; cleavage in S. aureus lysate (S. aureus RN4220 lysate): readily cleaved; degree of carbamate cleavage to 8h (S. aureus RN4220 lysate): ~30% |
